Results taken from patent US5733920A, “Inhibitors of cyclin dependent kinases” (Mitotix, Inc., priority 1995, dated 1998).

Target: T1, CDK4/Cyclin D1 (Homo sapiens, UniProt P11802)
T1 construct: made in house; host or cells: insect cells (crude cell lysate)
Experiment: Cyclin D1/cdk4 phosphoRb in vitro kinase assay
Assay type: biochemical
Conditions: for IC50: insect cell lysates expressing cyclin D1 and cdk4, GST-Rb substrate, 32P-ATP, read-out: IC50, inhibition of CDK4/Cyclin D1; for relative potency of inhibition of CDK4/cyclin D1: compared with Compound 4 and Compound 1 (esters or ethers)
Excerpt: The efficacy of a compound in inhibiting the activity of cyclin-dependent kinases can be determined by several methods well known in the art, such as a kinase assay, as described in the Examples section herein, or as described in Losiewics, M. D., et al. (1994) Biochem. Biophys. Res. Commun. 201, 589. Thus, a complex containing the cyclin-dependent kinase and a cyclin is first isolated either from a recombinant source, or immunoprecipitated from cells synchronized at the stage at which a particular cyclin-dependent kinase is present at high levels in the cell. The immunoprecipitates are then incubated in the presence of radiolabelled ATP and an appropriate substrate with various amounts of the inhibitor. The amount of radioactivity associated with the substrate protein can then be determined by various methods well known in the art. The substrate used for the kinase assay will depend on the specific kinase. Typically, histone H1 or CDK1 S1 is used as a substrate for the CDC2 kinase and the retinoblastoma protein is used as a substrate in a kinase assay for CDK4. The kinases, cyclins, and substrates used in the in vitro kinase assay can be proteins isolated from mammalian cells, or alternatively, they can be proteins produced recombinantly, such as in E. Coli.
This example is an illustration of the cyclin-dependent kinase inhibitory activity of the compounds of the invention. The kinase inhibitory activity of several compounds of the invention was determined using an in vitro kinase assay in which the kinase activity of the CDK4 kinase was measured using a Cyclin D1/cdk4 phosphoRb Assay. Briefly, the assay employs cell lysates from insect cells expressing cyclin D1 and cdk4 kinase. The cyclin/cdk lysate is combined in a microtitre-type plate along with a kinase compatible buffer, ^32 P-labeled ATP, a GST-Rb fusion protein, and the test agent. The kinase reaction is allowed to proceed with the radiolabeled ATP, then effectively stopped by the addition of a large excess of unlabeled ATP. The GST-Rb protein is sequestered on a GSH-Sepharose bead suspension, washed, resuspended in scintilant, and ^32 P activity detected in a scintillation counter. The concentration of compound at which 50% of the kinase activity was blocked (IC50) was calculated for each compound.

T1 sequence (P11802 whole entry, species assumed): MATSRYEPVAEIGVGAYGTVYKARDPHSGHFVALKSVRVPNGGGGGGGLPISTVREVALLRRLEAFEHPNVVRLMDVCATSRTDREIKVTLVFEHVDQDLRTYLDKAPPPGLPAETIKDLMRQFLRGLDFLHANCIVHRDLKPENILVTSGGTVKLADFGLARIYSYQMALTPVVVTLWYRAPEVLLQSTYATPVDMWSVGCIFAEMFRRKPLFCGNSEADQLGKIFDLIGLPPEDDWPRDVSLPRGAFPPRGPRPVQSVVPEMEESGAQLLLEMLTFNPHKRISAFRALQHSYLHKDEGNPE
T1 sequence (P24385 whole entry partner, species assumed): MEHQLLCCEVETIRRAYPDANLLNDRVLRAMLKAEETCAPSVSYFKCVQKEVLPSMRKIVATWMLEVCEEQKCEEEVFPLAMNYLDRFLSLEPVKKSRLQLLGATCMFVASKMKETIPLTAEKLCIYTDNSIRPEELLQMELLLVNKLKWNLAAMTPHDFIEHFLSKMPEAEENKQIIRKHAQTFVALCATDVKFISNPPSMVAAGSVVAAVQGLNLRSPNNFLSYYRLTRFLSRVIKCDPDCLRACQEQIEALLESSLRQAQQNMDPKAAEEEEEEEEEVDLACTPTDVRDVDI

SMILES | IC50 [µM] | relative potency of inhibition of CDK4/cyclin D1
COc1cc(OC)c2c(=O)cc(-c3ccccc3Cl)oc2c1C1CCN(C)CC1=O (centres unmarked) [Compound 4] | 230 | –
COc1cc(OC)c2c(=O)cc(-c3ccccc3Cl)oc2c1[C@@H]1CN(C)CC[C@@H]1O (relative stereo) [Compound 13] | < 250 | –
COc1cc(OC)c2c(=O)cc(-c3ccccc3Cl)oc2c1C1=CCN(C)CC1 [Compound 1] | < 250 | –
CN1CCC(c2c(O)cc(O)c3c(=O)cc(-c4ccccc4Cl)oc23)C(=O)C1 (centres unmarked) [Compound 5] | < 50 | much more potent inhibitors of CDK4/cyclin D1
CN1CC=C(c2c(O)cc(O)c3c(=O)cc(-c4ccccc4Cl)oc23)CC1 [Compound 3] | < 50 | much more potent inhibitors of CDK4/cyclin D1
CN1CC[C@H](O)[C@H](c2c(O)cc(O)c3c(=O)cc(-c4ccccc4Cl)oc23)C1 (relative stereo) [Compound 14] | < 150 | –
